Test: xn = mol fraction of the nth substance listed
Conditions: 298.15 K, 101 kPa, Liquid, Vibrating tube method

CC(C)CO [2-methyl-1-propanol] + CCCCOC(C)=O
Conditions	mass density [kg/m3]
x2 = 0	797.82

CCC(C)Cl (stereo not drawn) [2-chlorobutane] + CCCCOC(C)=O
Conditions	mass density [kg/m3]
x1 = 0.0787	875.55
x1 = 0.1618	874.83
x1 = 0.233	874.2
x1 = 0.325	873.36
x1 = 0.3861	872.8
x1 = 0.4512	872.2
x1 = 0.506	871.7
x1 = 0.5902	870.94
x1 = 0.6656	870.27
x1 = 0.7352	869.65
x1 = 0.7862	869.19
x1 = 0.8516	868.6
x1 = 0.8961	868.19
x1 = 0.9458	867.73
x1 = 1	867.21

CC(C)CO [2-methyl-1-propanol] + CCC(C)Cl
Conditions	mass density [kg/m3]
x2 = 0	797.82

CCCCOC(C)=O [butyl ethanoate] + CCC(C)Cl
Conditions	mass density [kg/m3]
x2 = 0	876.2

CCC(C)Cl (stereo not drawn) [2-chlorobutane] + CC(C)CO
Conditions	mass density [kg/m3]
x1 = 0.0579	801.82
x1 = 0.1152	805.77
x1 = 0.2274	813.51
x1 = 0.3166	819.67
x1 = 0.4235	827.01
x1 = 0.4896	831.53
x1 = 0.5564	836.12
x1 = 0.6097	839.79
x1 = 0.6872	845.08
x1 = 0.7523	849.59
x1 = 0.809	853.54
x1 = 0.8487	856.33
x1 = 0.8975	859.77
x1 = 0.9293	862.05
x1 = 0.9638	864.55
x1 = 1	867.21

CCCCOC(C)=O [butyl ethanoate] + CC(C)CO
Conditions	mass density [kg/m3]
x1 = 0.0589	802.41
x1 = 0.1065	806.12
x1 = 0.1907	812.7
x1 = 0.272	819.03
x1 = 0.3894	828.2
x1 = 0.4427	832.34
x1 = 0.5277	838.96
x1 = 0.607	845.14
x1 = 0.6829	851.07
x1 = 0.7405	855.58
x1 = 0.8166	861.57
x1 = 0.87	865.79
x1 = 0.9312	870.67
x1 = 1	876.2

From the NIST ThermoML archive (doi:10.1016/j.jct.2011.05.017)
